3 sequences from US7455984B2, “Immunoreactive and immunotherapeutic molecules” (The Walter and Eliza Hall Institute of Medical Research, priority 1995, dated 2008) can be followed below.

In this experiment the test system is Peripheral blood mononuclear cells from IDDM at-risk and HLA-DR matched control subjects. The experiment is described as follows: T-cell proliferation assay ([3H]thymidine incorporation, delta score), ten HLA-DR matched pairs. In kind it is cell-based, human. Particulars: for Reactivity (T-cell proliferation) by subject group: IDDM at-risk and control subjects, ten pairs; for Delta Score, Mean: mean of 10 subjects; for T-cell proliferative response, IDDM at-risk versus control subjects: highest concentration of peptide, Wilcoxon one-tailed paired analysis (proinsulin p<0.008; GAD p<0.018). For orientation: Uptake of a labelled nucleoside into DNA is a usual measure of proliferation.

Turning to “CRFDPQFALTNIAVRK [unrelated control peptide, irrelevant control peptide (Macromolecular Resources, Fort Collins, Colo.), reference compound]”, the “Reactivity (T-cell proliferation) by subject group” value (“Reactivity (T-cell proliferation)” below) is recorded as “no subject reacted”.

In the case of “FFYTPKTRREAED [Proinsulin, synthetic 13-mer peptide of human proinsulin, amino acid residues 24-36]”, the “Reactivity (T-cell proliferation)” value is “confined almost entirely to IDDM at-risk subjects” and the “T-cell proliferative response, IDDM at-risk versus control subjects” value is “greater among IDDM at-risk than control subjects”. Also, the “Delta Score, Mean” value (Proinsulin 0.4 μg/ml, At Risk, Wilcoxon one-tailed P 0.054 vs Control) is on record as 136.0 cpm. Also, the “Delta Score” value (Proinsulin 0.4 μg/ml, Control subject of each pair) was determined as 0 cpm. Besides, the “Delta Score, Mean” value (Proinsulin 0.4 μg/ml, Control) was 0 cpm. The “Delta Score, Mean” value (Proinsulin 2 μg/ml, At Risk, Wilcoxon one-tailed P 0.125 vs Control) is listed as 251.1 cpm. Further, the “Delta Score, Mean” value (Proinsulin 2 μg/ml, Control) turned out to be 45.8 cpm. Where the note is “Proinsulin 10 μg/ml, At Risk, Wilcoxon one-tailed P 0.008 vs Control”, the “Delta Score, Mean” value amounted to 558.7 cpm. Moreover, the “Delta Score, Mean” value (Proinsulin 10 μg/ml, Control) turned out to be 27.6 cpm.

“FWYIPPSLRTLED [GAD, synthetic 13-mer peptide of human GAD 65, amino acid residues 506-518]”: the “Reactivity (T-cell proliferation)” value was “some controls also responded” and the “T-cell proliferative response, IDDM at-risk versus control subjects” value is recorded as “greater among IDDM at-risk than control subjects”. Also, where the note is “GAD 0.4 μg/ml, At Risk, Wilcoxon one-tailed P 0.199 vs Control”, the “Delta Score, Mean” value is given as 135.3 cpm. Further, the “Delta Score, Mean” value (GAD 0.4 μg/ml, Control) was found to be 34.1 cpm. For the same sequence, the “Delta Score, Mean” value (GAD 2 μg/ml, At Risk, Wilcoxon one-tailed P 0.199 vs Control) turned out to be 133.0 cpm. In addition, the “Delta Score, Mean” value (GAD 2 μg/ml, Control) is given as 178.2 cpm. Moreover, the “Delta Score, Mean” value (GAD 10 μg/ml, At Risk, Wilcoxon one-tailed P 0.018 vs Control) is recorded as 1042.4 cpm. The “Delta Score, Mean” value (GAD 10 μg/ml, Control) stood at 318.1 cpm.
